Reference: patent US20210355121A1, “FUSED TRICYCLIC KRAS INHIBITORS” (Incyte Corporation, priority 2020, published 2021)

Key:
KRAS G12C = KRAS G12C (Homo sapiens, UniProt P01116, G12C); experiment: KRAS G12C GDP-GTP exchange assay (bodipy-GDP for GppNHp, with SOS1); assay type: biochemical; settings: 2.5 nM bodipy-loaded KRAS G12C, 2 hours pre-incubation with inhibitor, 2 hours after GppNHp-SOS1; read-out: G12C_exchange (KRAS_G12C exchange assay IC50)
Method in brief: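 Fluorescence nucleotide-exchange assay: bodipy-GDP-loaded KRAS (2.5 nM final) pre-incubated with inhibitor 2 h at ambient temperature, then 500 µM GppNHp plus 150 nM SOS1 added in pH 7.5 Hepes/MgCl2 buffer. Exchange read at ex 485/em 520 nm after 2 h (G12C), 4 h (G12D) or 3 h (G12V). IC50 from four-parameter logistic fit.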

[1] = tested on: MIA PaCa-2 (KRAS G12C) cells; experiment: KRAS_G12C cellular pERK HTRF assay; assay type: cell-based, human; set-up: G12C_pERK (KRAS_G12C pERK assay IC50): scale not given here; settings: phospho-ERK1/2 HTRF, 4 hours incubation; for IC50: Homo sapiens, MIA PaCa-2, read-out: G12C_pERK (KRAS_G12C pERK assay IC50)
Method: MIA PaCa-2 (KRAS G12C; ATCC® CRL-1420), A427 (KRAS G12D; ATCC® HTB53), HPAF-II (KRAS G12D; ATCC® CRL-1997) and NCI-H838 (KRAS WT; ATCC® CRL-5844) cells are purchased from ATCC and maintained in RPMI 1640 media supplemented with 10% FBS (Gibco/Life Technologies). The cells are plated at 5000 cells per well (8 uL) into Greiner 384-well low volume, flat-bottom, tissue culture treated white plates and incubated overnight at 37° C., 5% CO2. The next morning, test compound stock solutions are diluted in media at 3× the final concentration, and 4 uL are added to the cells. The plate is mixed by gentle rotation for 30 seconds (250 rpm) at room temperature. The cells are incubated with the KRAS G12C and G12D compounds for 4 hours or 2 hours respectively at 37° C., 5% CO2.
4 uL of 4× lysis buffer with blocking reagent (1:25) (Cisbio) are added to each well and plates are rotated gently (300 rpm) for 30 minutes at room temperature. 4 uL per well of Cisbio anti Phospho-ERK 1/2 d2 is mixed with anti Phospho-ERK 1/2 Cryptate (1:1) are added to each well, mixed by rotation and incubated overnight in the dark at room temperature. Plates are read on the Pherastar plate reader at 665 nm and 620 nm wavelengths. IC50 determination is performed by fitting the curve of inhibitor percent inhibition versus the log of the inhibitor concentration using the GraphPad Prism 7 software.

Sequence of KRAS G12C (P01116 1-188 isoform P01116-2 G12C): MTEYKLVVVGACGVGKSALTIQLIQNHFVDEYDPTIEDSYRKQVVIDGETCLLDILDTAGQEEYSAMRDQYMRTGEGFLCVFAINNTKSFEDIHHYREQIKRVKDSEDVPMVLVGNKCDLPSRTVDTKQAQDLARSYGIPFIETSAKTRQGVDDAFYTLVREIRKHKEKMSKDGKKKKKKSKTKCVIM

| Structure (SMILES) | IC50 (KRAS G12C) | IC50 [1] | G12C_pERK (KRAS_G12C pERK assay IC50) [1] |
| --- | --- | --- | --- |
| COC/C=C/C(=O)N1CC[C@H](n2ncc3c(OC[C@@H]4CCCN4C)nc4c(F)c(-c5c(C)c(C)cc6[nH]ncc56)c(Cl)cc4c32)C[C@H]1CC#N (single isomer, unassigned) [Example 79a] | ≤ 100 nM | ≤ 100 nM |  |
| Cc1cc2[nH]ncc2c(-c2c(Cl)cc3c(nc(OC[C@@H]4CCCN4C)c4cnn([C@H]5CCN(C(=O)/C=C/CN(C)C)[C@H](CC#N)C5)c43)c2F)c1C (single isomer, unassigned) [Example 80a] | ≤ 100 nM | ≤ 100 nM |  |
| C=C(F)C(=O)N1CC[C@H](n2ncc3c(N4CC(C)(N(C)C)C4)nc4c(F)c(-c5c(C)c(C)cc6[nH]ncc56)c(Cl)cc4c32)C[C@H]1CC#N (single isomer, unassigned) [Example 81a] | ≤ 100 nM | ≤ 100 nM |  |
| CC#CC(=O)N1CC[C@H](n2ncc3c(N4CC(C)(N(C)C)C4)nc4c(F)c(-c5c(C)c(C)cc6[nH]ncc56)c(Cl)cc4c32)C[C@H]1CC#N (single isomer, unassigned) [Example 82a] | ≤ 100 nM | ≤ 100 nM |  |
| COC/C=C/C(=O)N1CC[C@H](n2ncc3c(N4CC(C)(N(C)C)C4)nc4c(F)c(-c5c(C)c(C)cc6[nH]ncc56)c(Cl)cc4c32)C[C@H]1CC#N (single isomer, unassigned) [Example 83a] | ≤ 100 nM | ≤ 100 nM |  |
| Cc1cc2[nH]ncc2c(-c2c(Cl)cc3c(nc(N4CC(C)(N(C)C)C4)c4cnn([C@H]5CCN(C(=O)/C=C/CN(C)C)[C@H](CC#N)C5)c43)c2F)c1C (single isomer, unassigned) [Example 84a] | ≤ 100 nM | ≤ 100 nM |  |
| CC#CC(=O)N1CC[C@H](n2ccc3c(OC[C@@H]4CCCN4C)nc4c(F)c(-c5c(C)c(C)cc6[nH]ncc56)c(Cl)cc4c32)C[C@H]1CC#N (single isomer, unassigned) [Example 90a] | ≤ 100 nM | ≤ 100 nM |  |
| C=CC(=O)N1CCC(n2ncc3cnc4c(F)c(-c5cc(O)cc6ccccc56)c(Cl)cc4c32)CC1 [Example 1] | ≤ 100 nM |  | †† |
| C=CC(=O)N1CCC(n2ncc3c(N4CC(N(C)C)C4)nc4c(F)c(-c5cc(O)cc6ccccc56)c(Cl)cc4c32)CC1 [Example 2, 1-(4-(8-chloro-4-(3-(dimethylamino)azetidin-1-yl)-6-fluoro-7-(3-hydroxynaphthalen-1-yl)-1H-pyrazolo[4,3-c]quinolin-1-yl)piperidin-1-yl)prop-2-en-1-one] | ≤ 100 nM | ≤ 100 nM |  |
| C=CC(=O)N1CC[C@H](n2ncc3c(N4CC(N(C)C)C4)nc4c(F)c(-c5cncc6ccccc56)c(Cl)cc4c32)C[C@H]1CC#N [Example 22, 2-((2S,4S)-1-acryloyl-4-(8-chloro-4-(3-(dimethylamino)azetidin-1-yl)-6-fluoro-7-(isoquinolin-4-yl)-1H-pyrazolo[4,3-c]quinolin-1-yl)piperidin-2-yl)acetonitrile] | ≤ 100 nM | ≤ 100 nM |  |
| C=CC(=O)N1CC[C@H](n2ncc3c(N4CC(N(C)C)C4)nc4c(F)c(-c5cccc(C)c5Cl)c(Cl)cc4c32)C[C@H]1CC#N [Example 23, 2-((2S,4S)-1-acryloyl-4-(8-chloro-7-(2-chloro-3-methylphenyl)-4-(3-(dimethylamino)azetidin-1-yl)-6-fluoro-1H-pyrazolo[4,3-c]quinolin-1-yl)piperidin-2-yl)acetonitrile] | ≤ 100 nM | ≤ 100 nM |  |
| Cc1cccc(-c2c(Cl)cc3c(nc(N4CC(N(C)C)C4)c4cnn([C@H]5CCN(C(=O)/C=C/CN(C)C)[C@H](CC#N)C5)c43)c2F)c1Cl [Example 24, 2-((2S,4S)-4-(8-chloro-7-(2-chloro-3-methylphenyl)-4-(3-(dimethylamino)azetidin-1-yl)-6-fluoro-1H-pyrazolo[4,3-c]quinolin-1-yl)-1-((E)-4-(dimethylamino)but-2-enoyl)piperidin-2-yl)acetonitrile] | ≤ 100 nM | ≤ 100 nM |  |
| C=CC(=O)N1CC[C@H](n2ncc3c(N4CC(N(C)C)C4)nc4c(F)c(-c5cccc(C)c5C(F)(F)F)c(Cl)cc4c32)C[C@H]1CC#N [Example 27, 2-((2S,4S)-1-acryloyl-4-(8-chloro-4-(3-(dimethylamino)azetidin-1-yl)-6-fluoro-7-(3-methyl-2-(trifluoromethyl)phenyl)-1H-pyrazolo[4,3-c]quinolin-1-yl)piperidin-2-yl)acetonitrile] | ≤ 100 nM | ≤ 100 nM |  |
| C=CC(=O)N1CC[C@H](n2ncc3c(OC[C@@H]4CCCN4C)nc4c(F)c(-c5cccc(C)c5C(F)(F)F)c(Cl)cc4c32)C[C@H]1CC#N [Example 28, 2-((2S,4S)-1-acryloyl-4-(8-chloro-6-fluoro-7-(3-methyl-2-(trifluoromethyl)phenyl)-4-(((S)-1-methylpyrrolidin-2-yl)methoxy)-1H-pyrazolo[4,3-c]quinolin-1-yl)piperidin-2-yl)acetonitrile] | ≤ 100 nM | ≤ 100 nM |  |
| CN(C)C/C=C/C(=O)N1CC[C@H](n2ncc3c(N4CC(C)(N(C)C)C4)nc4c(F)c(-c5cccc6cccc(Cl)c56)c(Cl)cc4c32)C[C@H]1CC#N [Example 63, 2-((2S,4S)-4-(8-chloro-7-(8-chloronaphthalen-1-yl)-4-(3-(dimethylamino)-3-methylazetidin-1-yl)-6-fluoro-1H-pyrazolo[4,3-c]quinolin-1-yl)-1-((E)-4-(dimethylamino)but-2-enoyl)piperidin-2-yl)acetonitrile] | ≤ 100 nM | ≤ 100 nM |  |
| C[C@H](Oc1nc2c(F)c(-c3cccc4cccc(Cl)c34)c(Cl)cc2c2c1cnn2[C@H]1CCN(C(=O)/C=C/CF)[C@H](CC#N)C1)[C@@H]1CCCN1C [Example 85, 2-((2S,4S)-4-(8-chloro-7-(8-chloronaphthalen-1-yl)-6-fluoro-4-((S)-1-((S)-1-methylpyrrolidin-2-yl)ethoxy)-1H-pyrazolo[4,3-c]quinolin-1-yl)-1-((E)-4-fluorobut-2-enoyl)piperidin-2-yl)acetonitrile] | ≤ 100 nM | ≤ 100 nM |  |
| C=C(F)C(=O)N1CC[C@H](n2ncc3c(O[C@@H](C)[C@@H]4CCCN4C)nc4c(F)c(-c5cccc6cccc(Cl)c56)c(Cl)cc4c32)C[C@H]1CC#N [Example 86, 2-((2S,4S)-4-(8-chloro-7-(8-chloronaphthalen-1-yl)-6-fluoro-4-((S)-1-((S)-1-methylpyrrolidin-2-yl)ethoxy)-1H-pyrazolo[4,3-c]quinolin-1-yl)-1-(2-fluoroacryloyl)piperidin-2-yl)acetonitrile] | ≤ 100 nM | ≤ 100 nM |  |
| CC#CC(=O)N1CC[C@H](n2ncc3c(O[C@@H](C)[C@@H]4CCCN4C)nc4c(F)c(-c5cccc6cccc(Cl)c56)c(Cl)cc4c32)C[C@H]1CC#N [Example 87, 2-((2S,4S)-1-(but-2-ynoyl)-4-(8-chloro-7-(8-chloronaphthalen-1-yl)-6-fluoro-4-((S)-1-((S)-1-methylpyrrolidin-2-yl)ethoxy)-1H-pyrazolo[4,3-c]quinolin-1-yl)piperidin-2-yl)acetonitrile] | ≤ 100 nM | ≤ 100 nM |  |
| COC/C=C/C(=O)N1CC[C@H](n2ncc3c(O[C@@H](C)[C@@H]4CCCN4C)nc4c(F)c(-c5cccc6cccc(Cl)c56)c(Cl)cc4c32)C[C@H]1CC#N [Example 88, 2-((2S,4S)-4-(8-chloro-7-(8-chloronaphthalen-1-yl)-6-fluoro-4-((S)-1-((S)-1-methylpyrrolidin-2-yl)ethoxy)-1H-pyrazolo[4,3-c]quinolin-1-yl)-1-((E)-4-methoxybut-2-enoyl)piperidin-2-yl)acetonitrile] | ≤ 100 nM | ≤ 100 nM |  |
| C[C@H](Oc1nc2c(F)c(-c3cccc4cccc(Cl)c34)c(Cl)cc2c2c1cnn2[C@H]1CCN(C(=O)/C=C/CN(C)C)[C@H](CC#N)C1)[C@@H]1CCCN1C [Example 89, 2-((2S,4S)-4-(8-chloro-7-(8-chloronaphthalen-1-yl)-6-fluoro-4-((S)-1-((S)-1-methylpyrrolidin-2-yl)ethoxy)-1H-pyrazolo[4,3-c]quinolin-1-yl)-1-((E)-4-(dimethylamino)but-2-enoyl)piperidin-2-yl)acetonitrile] | ≤ 100 nM | ≤ 100 nM |  |
